Laboratory results taken from EP2987533B1, “7-substituted piperazin-1-yl fluoroquinolone compounds, their use in the treatment of cancer, pharmaceutical compositions and a method for preparation” (priority 2014, dated 2016).

Tests used:
Assay in all cases: NCI five-dose SRB growth assay
Type in all cases: cell-based
[1] = tested on: MCF7; conditions: Homo sapiens; MCF7 (Breast Cancer), 48 h
[2] = tested on: SF-268; conditions: Homo sapiens; SF-268 (CNS Cancer), 48 h
[3] = tested on: 786-0; conditions: Homo sapiens; 786-0 (Renal Cancer), 48 h
[4] = tested on: NCI-H522; conditions: Homo sapiens; NCI-H522 (Non-Small Cell Lung Cancer), 48 h
[5] = tested on: CAKI-1; conditions: Homo sapiens; CAKI-1 (Renal Cancer), 48 h
[6] = tested on: BT-549; conditions: Homo sapiens; BT-549 (Breast Cancer), 48 h
[7] = tested on: SNB-19; conditions: Homo sapiens; SNB-19 (CNS Cancer), 48 h
[8] = tested on: HCT-15; conditions: Homo sapiens; HCT-15 (Colon Cancer), 48 h
[9] = tested on: HOP-92; conditions: Homo sapiens; HOP-92 (Non-Small Cell Lung Cancer), 48 h
[10] = tested on: A549/ATCC; conditions: Homo sapiens; A549/ATCC (Non-Small Cell Lung Cancer), 48 h
[11] = tested on: A498; conditions: Homo sapiens; A498 (Renal Cancer), 48 h
[12] = tested on: SW-620; conditions: Homo sapiens; SW-620 (Colon Cancer), 48 h
[13] = tested on: PRMI-8226; conditions: Homo sapiens; PRMI-8226 (Leukemia), 48 h
[14] = tested on: HL-60(TB); conditions: Homo sapiens; HL-60(TB) (Leukemia), 48 h
[15] = tested on: MDA-MB-435; conditions: Homo sapiens; MDA-MB-435 (Melanoma), 48 h
[16] = tested on: NCI/ADR-RES; conditions: Homo sapiens; NCI/ADR-RES (Ovarian Cancer), 48 h
[17] = tested on: CCRF-CEM; conditions: Homo sapiens; CCRF-CEM (Leukemia), 48 h
[18] = tested on: MALME-3M; conditions: Homo sapiens; MALME-3M (Melanoma), 48 h
[19] = tested on: SK-OV-3; conditions: Homo sapiens; SK-OV-3 (Ovarian Cancer), 48 h
[20] = tested on: NCI-H226; conditions: Homo sapiens; NCI-H226 (Non-Small Cell Lung Cancer), 48 h
[21] = tested on: UACC-62; conditions: Homo sapiens; UACC-62 (Melanoma), 48 h
[22] = tested on: OVCAR-3; conditions: Homo sapiens; OVCAR-3 (Ovarian Cancer), 48 h
[23] = tested on: MDA-MB-468; conditions: Homo sapiens; MDA-MB-468 (Breast Cancer), 48 h
[24] = tested on: SF-539; conditions: Homo sapiens; SF-539 (CNS Cancer), 48 h
[25] = tested on: MDA-MB-231/ATCC; conditions: Homo sapiens; MDA-MB-231/ATCC (Breast Cancer), 48 h
[26] = tested on: KM12; conditions: Homo sapiens; KM12 (Colon Cancer), 48 h
[27] = tested on: T-47D; conditions: Homo sapiens, T47D; T-47D (Breast Cancer), 48 h
[28] = tested on: HOP-62; conditions: Homo sapiens; HOP-62 (Non-Small Cell Lung Cancer), 48 h
[29] = tested on: OVCAR-8; conditions: Homo sapiens; OVCAR-8 (Ovarian Cancer), 48 h
[30] = tested on: OVCAR-5; conditions: Homo sapiens; OVCAR-5 (Ovarian Cancer), 48 h
[31] = tested on: UACC-257; conditions: Homo sapiens; UACC-257 (Melanoma), 48 h
[32] = tested on: UO-31; conditions: Homo sapiens; UO-31 (Renal Cancer), 48 h
[33] = tested on: SK-MEL-2; conditions: Homo sapiens; SK-MEL-2 (Melanoma), 48 h
[34] = tested on: RXF 393; conditions: Homo sapiens; RXF 393 (Renal Cancer), 48 h
[35] = tested on: COLO 205; conditions: Homo sapiens; COLO 205 (Colon Cancer), 48 h
[36] = tested on: NCI-H322M; conditions: Homo sapiens; NCI-H322M (Non-Small Cell Lung Cancer), 48 h
[37] = tested on: PC-3; conditions: Homo sapiens; PC-3 (Prostate Cancer), 48 h
[38] = tested on: SK-MEL-5; conditions: Homo sapiens; SK-MEL-5 (Melanoma), 48 h
[39] = tested on: NCI-H23; conditions: Homo sapiens; NCI-H23 (Non-Small Cell Lung Cancer), 48 h

## CCn1cc(C(=O)O)c(=O)c2cc(F)c(N3CCN(S(=O)(=O)c4ccc(Cl)cc4Cl)CC3)cc21 [Compound 2a]
[1]
  GI50: 2950 nM
[2]
  GI50: 3860 nM
[3]
  GI50: 3190 nM
[4]
  GI50: 1810 nM
[5]
  GI50: 2010 nM
[6]
  GI50: 2640 nM
[7]
  GI50: 3070 nM
[8]
  GI50: 2820 nM
[9]
  GI50: 1220 nM
[10]
  GI50: 2890 nM
[11]
  GI50: 2990 nM
[12]
  GI50: 3910 nM
[13]
  GI50: 2550 nM
[14]
  GI50: 2220 nM
[15]
  GI50: 1970 nM
[16]
  GI50: 3280 nM
[17]
  GI50: 3030 nM
[18]
  GI50: 1950 nM
[19]
  GI50: 3000 nM
[20]
  GI50: 2600 nM
[21]
  GI50: 1610 nM
[22]
  GI50: 2540 nM
[23]
  GI50: 1980 nM
[24]
  GI50: 1920 nM
[25]
  GI50: 1880 nM
[26]
  GI50: 3420 nM
[27]
  GI50: 3110 nM
[28]
  GI50: 3080 nM
[29]
  GI50: 3300 nM
[30]
  GI50: 3430 nM
[31]
  GI50: 2650 nM
[32]
  GI50: 2200 nM
[33]
  GI50: 2750 nM
[34]
  GI50: 2080 nM
[35]
  GI50: 2440 nM
[36]
  GI50: 2860 nM
[37]
  GI50: 2430 nM
[38]
  GI50: 1870 nM
[39]
  GI50: 2330 nM
